From patent US20080242661A1, “Novel compounds useful for the treatment of degenerative & inflammatory diseases” (priority 2006, published 2008)

biological target: purified PDE1A enzyme (Homo sapiens, UniProt P54750); experiment: In vitro PDE1A assay, dose response (Biomol Cyclic Nucleotide Phosphodiesterase Assay Kit, colorimetric); assay type: biochemical; settings: 100 μM cAMP, 45 min at 37° C., 8 points from 20 μM, duplicate
Excerpt: For the dose response and further screening, we used the Cyclic Nucleotide Phosphodiesterase Assay Kit from Biomol, a colorimetric, non-radioactive assay. The basis for the assay is the cleavage of cAMP by PDE1A. The 5′AMP is further cleaved into the nucleoside and phosphate by the enzyme 5′-nucleotidase (catnr KI-307). The phosphate released due to enzymatic cleavage is quantified using BIOMOL GREEN™ reagent (catnr AK-111) in a modified Malachite Green assay 1,2. A PDE1A inhibitor will result in a decrease of the signal.
For the enzymatic reaction a mix of 25 μL with purified PDE1A enzyme, 100 μM cAMP, 5′Nucleotidase and the compound is made in a clear 384-plate. The reaction buffer is Tris 20 mM pH 7.4, 4 μg/ml calmodulin, 3 mM MgCl2, 1.5 mM CaCl2, 0.2 mg/mL BSA and 0.001% Brij-35. After an incubation of 45 minutes at 37° C., the reaction is stopped by the addition of 50 μL BIOMOL GREEN™ reagent. After 30 minutes incubation at room temperature, the readout is performed on the Envision (absorption at 615 nm).
All compounds are tested in duplicate starting from 20 μM followed by a ⅓ serial dilution, 8 points (20 μM-6.67 μM-2.22 μM-740 nM-247 nM-82 nM-27 nM-9 nM) in a final concentration of 1% DMSO. As the positive dose response control compound Vardenafil is used. For the calculation of z′ and PIN values 10 μM Vardenafil is used as positive control (100% inhibition) and 1% DMSO as negative control (0% inhibition).
The following compounds have been or can be prepared according to the synthetic methods described above. For the purpose of Table 2 below, activity of each compound, which can be determined using the PDE1A assay method described in above, is expressed as follows: […]

| SMILES | IC50 |
| --- | --- |
| CCCN(CCC)c1nc2c(C3CCCC3)nn(C)c2c(=O)[nH]1 [Example 78, 3-cyclopentyl-5-(dipropylamino)-1-methyl-1H-pyrazolo[4,3-d]pyrimidin-7(6H)-one] | < 100 nM |
| CCCc1nn(C)c2c(=O)[nH]c(NCc3cccc(N4CCCCC4)c3)nc12 [Example 11, 1-methyl-5-(3-(piperidin-1-yl)benzylamino)-3-propyl-1H-pyrazolo[4,3-d]pyrimidin-7(6H)-one] | 101 to 500 nM |
| CN(Cc1ccc(F)cc1)c1nc2c(C3CCCC3)nn(C)c2c(=O)[nH]1 [Example 70, 3-cyclopentyl-5-((4-fluorobenzyl)(methyl)amino)-1-methyl-1H-pyrazolo[4,3-d]pyrimidin-7(6H)-one] | < 100 nM |
| CCCN(CCC)c1nc2c(C(C)(C)C)nn(C)c2c(=O)[nH]1 [Example 89, 3-tert-butyl-5-(dipropylamino)-1-methyl-1H-pyrazolo[4,3-d]pyrimidin-7(6H)-one] | < 100 nM |
| CCCc1nn(C)c2c(=O)[nH]c(NCc3ccnc(N4CCOCC4)c3)nc12 [Example 54, 1-methyl-5-((2-morpholinopyridin-4-yl)methylamino)-3-propyl-1H-pyrazolo[4,3-d]pyrimidin-7(6H)-one] | 101 to 500 nM |
| CN(Cc1ccc(Cl)c(Cl)c1)c1nc2c(C3CCCC3)nn(C)c2c(=O)[nH]1 [Example 77, 3-cyclopentyl-5-((3,4-dichlorobenzyl)(methyl)amino)-1-methyl-1H-pyrazolo[4,3-d]pyrimidin-7(6H)-one] | < 100 nM |
| CC1CCCCN1c1nc2c(C3CCCC3)nn(C)c2c(=O)[nH]1 (stereo not drawn) [Example 84, 3-cyclopentyl-1-methyl-5-(2-methylpiperidin-1-yl)-1H-pyrazolo[4,3-d]pyrimidin-7(6H)-one] | > 500 nM |
| CCCc1nn(C)c2c(=O)[nH]c(NCCc3ccc(F)cc3)nc12 [Example 87, 5-(4-fluorophenethylamino)-1-methyl-3-propyl-1H-pyrazolo[4,3-d]pyrimidin-7(6H)-one] | > 500 nM |
| CC(C)CN(Cc1ccc(F)cc1)c1nc2c(C(C)(C)C)nn(C)c2c(=O)[nH]1 [Example 97, 3-tert-butyl-5-((4-fluorobenzyl)(isobutyl)amino)-1-methyl-1H-pyrazolo[4,3-d]pyrimidin-7(6H)-one] | < 100 nM |
| CCCc1nn(C)c2c(=O)[nH]c(NCc3sc(-c4ccccc4)nc3C)nc12 [Example 72, 1-methyl-5-((4-methyl-2-phenylthiazol-5-yl)methylamino)-3-propyl-1H-pyrazolo[4,3-d]pyrimidin-7(6H)-one] | < 100 nM |
| CCCc1nn(C)c2c(=O)[nH]c(N3CCN(C(=O)C(c4ccccc4)c4ccccc4)CC3)nc12 [Example 59, 5-(4-(2,2-diphenylacetoyl)piperazin-1-yl)-1-methyl-3-propyl-1H-pyrazolo[4,3-d]pyrimidin-7(6H)-one] | > 500 nM |
| CN(Cc1ccc(Cl)cc1)c1nc2c(C3CCCC3)nn(C)c2c(=O)[nH]1 [Example 71, 5-((4-chlorobenzyl)(methyl)amino)-3-cyclopentyl-1-methyl-1H-pyrazolo[4,3-d]pyrimidin-7(6H)-one] | < 100 nM |
| Cc1nc(-c2cccc(CN(C)c3nc4c(C(C)(C)C)nn(C)c4c(=O)[nH]3)c2)cs1 [Example 90, 3-tert-butyl-1-methyl-5-(methyl(3-(2-methylthiazol-4-yl)benzyl)amino)-1H-pyrazolo[4,3-d]pyrimidin-7(6H)-one] | < 100 nM |
| CCC(C)CN(Cc1cccc(-n2cncn2)c1)c1nc2c(C(C)(C)C)nn(C)c2c(=O)[nH]1 (stereo not drawn) [Example 118] | < 100 nM |
| CCCc1nn(C)c2c(=O)[nH]c(Nc3ccc4[nH]ncc4c3)nc12 [Example 7, 5-(1H-indazol-5-ylamino)-1-methyl-3-propyl-1H-pyrazolo[4,3-d]pyrimidin-7(6H)-one] | > 500 nM |

The remaining lines, values ahead:

| IC50 | SMILES |
| --- | --- |
| < 100 nM | CCCc1nn(C)c2c(=O)[nH]c(N(CCC)CCC)nc12 [Example 4, 5-(dipropylamino)-1-methyl-3-propyl-1H-pyrazolo[4,3-d]pyrimidin-7(6H)-one] |
| 101 to 500 nM | CCCc1nn(C)c2c(=O)[nH]c(N(C)Cc3ccc(-c4cncnc4)cc3)nc12 [Example 13, 1-methyl-5-(methyl(4-(pyrimidin-5-yl)benzyl)amino)-3-propyl-1H-pyrazolo[4,3-d]pyrimidin-7(6H)-one] |
| 101 to 500 nM | CCCc1nn(C)c2c(=O)[nH]c(NCc3ccc4c(c3)CCO4)nc12 [Example 62, 5-((2,3-dihydrobenzofuran-5-yl)methylamino)-1-methyl-3-propyl-1H-pyrazolo[4,3-d]pyrimidin-7(6H)-one] |
| 101 to 500 nM | CCCc1nn(C)c2c(=O)[nH]c(N(C)Cc3ccccc3Cl)nc12 [Example 24, 5-((2-chlorobenzyl)(methyl)amino)-1-methyl-3-propyl-1H-pyrazolo[4,3-d]pyrimidin-7(6H)-one] |
| < 100 nM | CN(Cc1cc(-c2ccccc2)nn1C)c1nc2c(C(C)(C)C)nn(C)c2c(=O)[nH]1 [Example 81, 3-tert-butyl-1-methyl-5-(methyl((1-methyl-3-phenyl-1H-pyrazol-5-yl)methyl)amino)-1H-pyrazolo[4,3-d]pyrimidin-7(6H)-one] |
| < 100 nM | CCCC(C)CN(C)c1nc2c(C(C)(C)C)nn(C)c2c(=O)[nH]1 (stereo not drawn) [Example 115, 3-tert-butyl-1-methyl-5-(methyl(2-methylpentyl)amino)-1H-pyrazolo[4,3-d]pyrimidin-7(6H)-one] |
| < 100 nM | CCCc1nn(C)c2c(=O)[nH]c(N(Cc3cccc(-n4cccn4)c3)CC(CC)CC)nc12 [Example 107] |
| 101 to 500 nM | CCCc1nn(C)c2c(=O)[nH]c(NCc3c(C)nn(Cc4ccccc4)c3C)nc12 [Example 91, 5-((1-benzyl-3,5-dimethyl-1H-pyrazol-4-yl)methylamino)-1-methyl-3-propyl-1H-pyrazolo[4,3-d]pyrimidin-7(6H)-one] |
| 101 to 500 nM | CCCc1nn(C)c2c(=O)[nH]c(N(C)Cc3cccc(N4CCOCC4)n3)nc12 [Example 42, 1-methyl-5-(methyl((6-morpholinopyridin-2-yl)methyl)amino)-3-propyl-1H-pyrazolo[4,3-d]pyrimidin-7(6H)-one] |
| < 100 nM | CCCc1nn(C)c2c(=O)[nH]c(N(C)Cc3ccc(-c4ccncc4)cc3)nc12 [Example 40, 1-methyl-5-(methyl(4-(pyridin-4-yl)benzyl)amino)-3-propyl-1H-pyrazolo[4,3-d]pyrimidin-7(6H)-one] |
| 101 to 500 nM | CCCc1nn(C)c2c(=O)[nH]c(N(C)CCc3ccccc3)nc12 [Example 22, 1-methyl-5-(methyl(phenethyl)amino)-3-propyl-1H-pyrazolo[4,3-d]pyrimidin-7(6H)-one] |
| < 100 nM | CCCc1nn(C)c2c(=O)[nH]c(N(Cc3cccc(-n4cncn4)c3)CC(C)C)nc12 [Example 96] |
| < 100 nM | CCCc1nn(C)c2c(=O)[nH]c(N(Cc3cccc(N4CCOCC4)c3)CC(C)C)nc12 [Example 74, 5-(isobutyl(3-morpholinobenzyl)amino)-1-methyl-3-propyl-1H-pyrazolo[4,3-d]pyrimidin-7(6H)-one] |
| < 100 nM | CCCc1nn(C)c2c(=O)[nH]c(N(C)Cc3ccc(OC)cc3)nc12 [Example 9, 5-((4-methoxybenzyl)(methyl)amino)-1-methyl-3-propyl-1H-pyrazolo[4,3-d]pyrimidin-7(6H)-one] |
| < 100 nM | CCCc1nn(C)c2c(=O)[nH]c(N(Cc3cccc(-n4cccn4)c3)CC(C)(C)C)nc12 [Example 119] |
| 101 to 500 nM | CCCCN(Cc1ccc(Cl)c(Cl)c1)c1nc2c(CCC)nn(C)c2c(=O)[nH]1 [Example 46, 5-(butyl(3,4-dichlorobenzyl)amino)-1-methyl-3-propyl-1H-pyrazolo[4,3-d]pyrimidin-7(6H)-one] |
| 101 to 500 nM | CCCc1nn(C)c2c(=O)[nH]c(N(C)Cc3cc(C)n(C)n3)nc12 [Example 14, 5-(((1,5-dimethyl-1H-pyrazol-3-yl)methyl)(methyl)amino)-1-methyl-3-propyl-1H-pyrazolo[4,3-d]pyrimidin-7(6H)-one] |
| 101 to 500 nM | CCCc1nn(C)c2c(=O)[nH]c(N(C)Cc3ccc(C(F)(F)F)cc3)nc12 [Example 16, 1-methyl-5-(methyl(4-(trifluoromethyl)benzyl)amino)-3-propyl-1H-pyrazolo[4,3-d]pyrimidin-7(6H)-one] |
| 101 to 500 nM | CCCc1nn(C)c2c(=O)[nH]c(NCc3ccn(-c4ccccc4)n3)nc12 [Example 57, 1-methyl-5-((1-phenyl-1H-pyrazol-3-yl)methylamino)-3-propyl-1H-pyrazolo[4,3-d]pyrimidin-7(6H)-one] |
| < 100 nM | CCCc1nn(C)c2c(=O)[nH]c(N(C)Cc3cccc(-c4ccncc4)c3)nc12 [Example 43, 1-methyl-5-(methyl(3-(pyridin-4-yl)benzyl)amino)-3-propyl-1H-pyrazolo[4,3-d]pyrimidin-7(6H)-one] |
| < 100 nM | CCCc1nn(C)c2c(=O)[nH]c(NCc3cc(-c4ccccc4)nn3C)nc12 [Example 66, 1-methyl-5-((1-methyl-3-phenyl-1H-pyrazol-5-yl)methylamino)-3-propyl-1H-pyrazolo[4,3-d]pyrimidin-7(6H)-one] |
